From US10633423B2, “IL-6-binding polypeptide complex” (AFFIBODY AB, priority 2014, dated 2020)

How the values were obtained:
TNF = target: T1, TNF (Homo sapiens, UniProt P01375); test: ELISA binding activity of matured complexes, TNF (Example 13); details: approximate; plates coated with 0.5 μg/ml TNF
T1 construct: purchased R&D Systems
Procedure: The binding of TNF and IL-6 targeting complexes was analyzed in an ELISA assay. Half-area 96-well ELISA plates were directly coated at 4° C. overnight with 0.5 μg/ml of TNF or IL-6 in PBS buffer and the wells were blocked with 100 μl of 3% skim milk/PBS (137 mM NaCl, 2.7 mM KCl, 10 mM Na2HPO4, 1.8 mM KH2PO4) for 1 h at RT. Next, 30 μl of serially diluted complexes and control antibodies from a starting concentration of 1 μg/ml in 3% skim milk/PBS were added to each well. The plates were incubated for 2 h at RT followed by washing four times with PBST 0.05%. HRP conjugated anti-human IgG Fc secondary antibody (Pierce, cat. no. 31423) was diluted 1:5000 in 3% skim milk/PBS and added to the wells followed by 1 h incubation. After washing as described above, 30 μl ImmunoPure TMB substrate (Pierce, cat. no. 34014) was added to the wells and the plates were treated according to the manufacturer's recommendations. Adalimumab (Abbvie, LOT4435XH04) was used as a positive control for the TNF binding activity and as a negative control for the IL-6 binding activity. Furthermore, an irrelevant IgG (Jackson Immunoresearch, cat. no. Jac-009-000-003) was included as a negative control in both assays.

[1] = system: IL-6/TNF-dependent proliferation of TF-1 cells; test: TF-1 cell assay, stimulated with both IL-6 and TNF (Example 11); format: cell-based, human; details: TF-1 cells simultaneously stimulated with IL-6 and TNF
Procedure: TF-1 cells were cultured in RPMI1640 with L-glut (Lonza) supplemented with 10% FCS (Gibco), Pen-Strep (Lonza) and 2 ng/ml rhGM-CSF (R&D Systems). Prior to use, the cells were washed twice in RPMI1640 in the absence of rhGM-CSF. Cells were then counted and dispensed into 96 well flat bottomed plates at a density of 4×10^4 cells per well. […] The samples were incubated in the presence of either 0.099 nM rhIL-6 (R&D Systems, cat. no. 206-IL/CF), 0.023 nM rhTNF (R&D Systems, cat. no. 210-TA) or a combination of both cytokines. The pre-mixtures were transferred to wells containing TF-1 cells which were incubated for 72 h at 37° C. in a humidified 5% CO2 atmosphere. During the last four hours of incubation, 10 μl of CCK-8 (Fluka, Sigma Aldrich) was added per well to determine the number of proliferating cells. The absorbance was measured at 450 nm (Abs450) using a microplate reader (VICTOR^3, Perkin Elmer). The data on cell growth was assessed by non-linear regression to a four-parameter dose-response curve, and the half maximal inhibitory concentration (IC50) was determined using GraphPad Prism program. The inhibition of IL-6/TNF-dependent proliferation of TF-1 cells by the inhibitory molecules was as Abs450 minus control wells that contained cells but no IL-6.

[2] = system: IL-6 trans-signaling in human umbilical vein endothelial cells (HUVECs); test: HUVEC trans-signaling assay, MCP-1 readout; format: cell-based; details: Z variants fused to ABD variant PP013
Procedure: To address the trans-signaling pathway, a second assay was used. Herein, human umbilical vein endothelial cells (HUVECs) were stimulated with hIL-6 and soluble hIL-6Rα and the readout was the production of monocyte chemoattractant protein-1 (MCP-1). HUVECs (Lonza) were grown in EGM-2 bullet kit media (Lonza) and passaged in culture no more than eight times. Cells were grown until 75% confluence before use. Cells were detached using trypsin/EDTA (Lonza), resuspended and washed once in fresh medium. Next, cells were counted and dispensed into 96 well flat bottom plates at a density of 2×10^4 cells per well. Cells were cultured overnight at 37° C. in a humidified 5% CO2 atmosphere. […] The pre-mixed solutions with the test molecules and hIL-6/hIL-6Rα were then transferred to wells containing HUVECs, which were incubated for 24 h at 37° C. in a humidified 5% CO2 atmosphere. Cell free supernatant was collected after the incubation period and human MCP-1 levels were determined by sandwich ELISA using the MCP-1 Duoset ELISA development system (R&D Systems).
Half area 96-well ELISA plates were coated with anti-MCP-1 capture antibody (R&D Systems) at a concentration of 1 μg/ml. Plates were incubated overnight at 4° C., washed twice in tap water and blocked for 1 h in PBSC. […] The absorbance was measured at 450 nm using a microplate reader (Victor^3, Perkin Elmer).

[3] = RA patients, monotherapy, Gabay et al 2013; cited from earlier work

T1 sequence (P01375 77-233 limits assumed): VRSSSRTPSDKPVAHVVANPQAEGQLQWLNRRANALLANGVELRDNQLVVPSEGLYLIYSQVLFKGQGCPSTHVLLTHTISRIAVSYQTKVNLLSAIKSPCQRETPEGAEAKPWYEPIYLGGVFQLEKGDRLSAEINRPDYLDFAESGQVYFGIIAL

## Adalimumab
TNF
  EC50: 77 pM

## His6-Z04726: negative control Z variant Z04726 (SEQ ID NO:1553) with N-terminal His6-tag [reference compound]
[1]
  blocking of TF-1 cell growth: No effect

## Z03638: control Z variant binding an irrelevant target; tested in fusion with ABD variant PP013 [reference compound]
[2]
  inhibition of IL-6 mediated trans-signaling: did not

## tocilizumab
[3]
  reduction of RA-related symptoms: more effective than adalimumab
